Data: ChEMBL document CHEMBL5661982 (Mol Cancer Ther, 2012)
Activity calls are given as the source filed them. The calls are words filed in the database; no cut-off is given here.

Columns and labels:
[1] = system: U-87 MG; test: Antitumor activity against human U-87 MG cells xenografted in athymic nu/nu mouse assessed as tumor growth inhibition at 10 mg/kg, po for 9 days relative to control; details: 216 h, read-out: TGI
[2] = system: HT-29; details: Homo sapiens, dose 50.0 mg/kg/day, route po, time 21.0 day
[3] = system: NCI-H292; test: Antitumor activity against human NCI-H292 cells xenografted in athymic nu/nu mouse assessed as tumor growth inhibition at 50 mg/kg/day, po for 31 days relative to control; details: 744 h, read-out: TGI
[4] = system: MDA-MB-468; test: Antiproliferative activity against human MDA-MB-468 cells over expressing c-Met assessed as reduction in cell viability after 48 to 72 hrs by MTT assay
[5] = system: HT-29; test: Antitumor activity against human HT-29 cells transfected with RON shRNA xenografted in athymic nu/nu mouse assessed as tumor growth inhibition at 50 mg/kg/day, po for 21 days relative to control; details: HT-29, po, 504 h, read-out: TGI
[6] = system: GTL 16 cell line; test: Antitumor activity against human GTL 16 cells xenografted in athymic nu/nu mouse assessed as tumor growth inhibition at 0.5 mg/kg, sc minipump administered for 14 days relative to control; details: GTL 16, 336 h, read-out: TGI
[7] = system: GTL 16; details: Homo sapiens, dose 0.3-10 mg/kg, route po, time 4.0 day
[8] = system: HT-29; test: Inhibition of cell invasion in HGF-stimulated human HT-29 cells over expressing c-Met incubated for 48 hrs by Matrigel based analysis; details: HT-29, 48 h
[9] = target: Tyrosine-protein kinase receptor UFO (Homo sapiens, UniProt P30530); test: Inhibition of AXL expressed in HEK293 cells assessed as reduction in Gas6-stimulated AXL phosphorylation incubated for 1 hr by sandwich ELISA analysis
[10] = system: GTL 16 cell line; test: Antitumor activity against human GTL 16 cells xenografted in athymic nu/nu mouse assessed as tumor growth inhibition at 3 mg/kg, po administered for 16 days relative to control; details: GTL 16, po, 384 h, read-out: TGI
[11] = system: SW-620; test: Antitumor activity against human SW620 cells xenografted in athymic nu/nu mouse assessed as tumor growth inhibition at 40 mg/kg/day, po for 25 days relative to control; details: SW-620, po, 600 h, read-out: TGI
[12] = system: GTL 16; details: Homo sapiens, dose 0.3-10 mg/kg, route po, time 4.0 day; remark: listed apart in the source
[13] = system: GTL 16; details: Homo sapiens, dose 0.3-10 mg/kg, route po, time 4.0 day; remark: listed apart in the source
[14] = system: GTL 16; details: Homo sapiens, dose 3-30 mg/kg, route po, time 4.0 day
[15] = system: COLO 205; test: Antiproliferative activity against human COLO 205 cells over expressing c-Met assessed as reduction in cell viability after 48 to 72 hrs by MTT assay
[16] = system: U-87 MG; test: Antitumor activity against human U-87 MG cells xenografted in athymic nu/nu mouse assessed as tumor growth inhibition at 3 mg/kg, po for 9 days relative to control; details: 216 h, read-out: TGI
[17] = system: NCI-H1993; test: Antiproliferative activity against human NCI-H1993 cells over expressing c-Met assessed as reduction in cell viability after 48 to 72 hrs by MTT assay
[18] = target: SLC34A2-ROS1 (Homo sapiens, UniProt P08922); test: Inhibition of SLC34A2-Ros phosphorylation in human HCC87 cells incubated for 1 hr by sandwich ELISA analysis
[19] = system: GTL 16; details: Homo sapiens, dose 0.3-10 mg/kg, route po, time 4.0 day; remark: listed apart in the source
[20] = system: NCI-H441; test: Inhibition of cell invasion in HGF-stimulated human NCI-H441 cells over expressing c-Met incubated for 48 hrs by Matrigel based analysis; details: NCI-H441, 48 h
[21] = system: A549; test: Antiproliferative activity against human A549 cells over expressing c-Met assessed as reduction in cell viability after 48 to 72 hrs by MTT assay
[22] = system: SW-620; details: Homo sapiens, dose 40.0 mg/kg/day, route po, time 25.0 day
[23] = Inhibition of c-Met R988C mutant phosphorylation in human NCI-H69 cells assessed as reduction in HGF-stimulated c-Met phosphorylation incubated for 1 hr by ELISA analysis; details: NCI-H69, 1 h
[24] = system: U-87 MG; test: Antitumor activity against human U-87 MG cells xenografted in athymic nu/nu mouse assessed as tumor growth inhibition at 1 mg/kg, po for 9 days relative to control; details: 216 h, read-out: TGI
[25] = system: GTL 16; details: Homo sapiens, dose 0.3-10 mg/kg, route po, time 4.0 day; remark: listed apart in the source
[26] = system: GTL 16 cell line; test: Antiproliferative activity against human GTL 16 cells over expressing c-Met assessed as reduction in cell viability after 48 to 72 hrs by MTT assay
[27] = system: HT-29; details: Homo sapiens, dose 50.0 mg/kg/day, route po, time 21.0 day; remark: listed apart in the source
[28] = system: GTL 16 cell line; test: Antitumor activity against human GTL 16 cells xenografted in athymic nu/nu mouse assessed as tumor growth inhibition at 10 mg/kg, po administered for 16 days relative to control; details: GTL 16, po, 384 h, read-out: TGI
[29] = system: GTL 16 cell line; test: Antitumor activity against human GTL 16 cells xenografted in athymic nu/nu mouse assessed as tumor growth inhibition at 1 mg/kg, po administered for 16 days relative to control; details: GTL 16, po, 384 h, read-out: TGI
[30] = target: Tyrosine-protein kinase Mer (Homo sapiens, UniProt Q12866); test: Inhibition of MER expressed in HEK293 cells assessed as reduction in Gas6-stimulated MER phosphorylation incubated for 1 hr by sandwich ELISA analysis
[31] = system: HCT-116; test: Antiproliferative activity against human HCT-116 cells over expressing c-Met assessed as reduction in cell viability after 48 to 72 hrs by MTT assay
[32] = Inhibition of human c-Met V1092I mutant expressed in mouse NIH3T3 cells assessed as reduction in HGF-stimulated c-Met phosphorylation incubated for 1 hr by ELISA analysis; details: NIH3T3, 1 h
[33] = system: U-87MG ATCC; details: Homo sapiens, dose 5-50 mg/kg, route po, time 3.0 day
[34] = system: GTL 16 cell line; test: Antitumor activity against human GTL 16 cells xenografted in athymic nu/nu mouse assessed as tumor growth inhibition at 15 mg/kg, sc minipump administered for 14 days relative to control; details: GTL 16, 336 h, read-out: TGI

Chain of Tyrosine-protein kinase receptor UFO (P30530 whole entry): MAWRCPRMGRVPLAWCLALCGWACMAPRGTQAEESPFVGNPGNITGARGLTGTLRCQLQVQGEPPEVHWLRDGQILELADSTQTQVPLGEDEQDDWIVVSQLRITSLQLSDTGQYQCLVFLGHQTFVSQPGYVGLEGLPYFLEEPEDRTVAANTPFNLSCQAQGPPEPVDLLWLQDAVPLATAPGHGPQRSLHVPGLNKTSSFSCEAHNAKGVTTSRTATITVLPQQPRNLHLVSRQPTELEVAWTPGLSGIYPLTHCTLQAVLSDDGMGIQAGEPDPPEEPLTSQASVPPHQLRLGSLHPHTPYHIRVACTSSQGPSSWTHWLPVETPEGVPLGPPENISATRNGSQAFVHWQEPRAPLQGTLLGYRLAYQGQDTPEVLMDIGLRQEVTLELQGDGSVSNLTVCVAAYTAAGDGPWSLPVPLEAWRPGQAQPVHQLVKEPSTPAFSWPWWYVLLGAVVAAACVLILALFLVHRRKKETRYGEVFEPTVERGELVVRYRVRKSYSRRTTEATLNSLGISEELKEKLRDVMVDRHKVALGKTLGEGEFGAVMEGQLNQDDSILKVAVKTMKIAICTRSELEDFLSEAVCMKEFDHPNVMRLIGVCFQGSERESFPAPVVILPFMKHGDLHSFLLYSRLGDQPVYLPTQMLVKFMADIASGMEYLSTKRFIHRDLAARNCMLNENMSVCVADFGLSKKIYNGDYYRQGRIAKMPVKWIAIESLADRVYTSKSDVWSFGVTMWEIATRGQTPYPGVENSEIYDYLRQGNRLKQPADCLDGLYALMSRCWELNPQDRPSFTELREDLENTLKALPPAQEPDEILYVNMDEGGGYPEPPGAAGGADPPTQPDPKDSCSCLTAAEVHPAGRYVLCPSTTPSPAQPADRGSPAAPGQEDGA
Chain of SLC34A2-ROS1 (P08922 whole entry): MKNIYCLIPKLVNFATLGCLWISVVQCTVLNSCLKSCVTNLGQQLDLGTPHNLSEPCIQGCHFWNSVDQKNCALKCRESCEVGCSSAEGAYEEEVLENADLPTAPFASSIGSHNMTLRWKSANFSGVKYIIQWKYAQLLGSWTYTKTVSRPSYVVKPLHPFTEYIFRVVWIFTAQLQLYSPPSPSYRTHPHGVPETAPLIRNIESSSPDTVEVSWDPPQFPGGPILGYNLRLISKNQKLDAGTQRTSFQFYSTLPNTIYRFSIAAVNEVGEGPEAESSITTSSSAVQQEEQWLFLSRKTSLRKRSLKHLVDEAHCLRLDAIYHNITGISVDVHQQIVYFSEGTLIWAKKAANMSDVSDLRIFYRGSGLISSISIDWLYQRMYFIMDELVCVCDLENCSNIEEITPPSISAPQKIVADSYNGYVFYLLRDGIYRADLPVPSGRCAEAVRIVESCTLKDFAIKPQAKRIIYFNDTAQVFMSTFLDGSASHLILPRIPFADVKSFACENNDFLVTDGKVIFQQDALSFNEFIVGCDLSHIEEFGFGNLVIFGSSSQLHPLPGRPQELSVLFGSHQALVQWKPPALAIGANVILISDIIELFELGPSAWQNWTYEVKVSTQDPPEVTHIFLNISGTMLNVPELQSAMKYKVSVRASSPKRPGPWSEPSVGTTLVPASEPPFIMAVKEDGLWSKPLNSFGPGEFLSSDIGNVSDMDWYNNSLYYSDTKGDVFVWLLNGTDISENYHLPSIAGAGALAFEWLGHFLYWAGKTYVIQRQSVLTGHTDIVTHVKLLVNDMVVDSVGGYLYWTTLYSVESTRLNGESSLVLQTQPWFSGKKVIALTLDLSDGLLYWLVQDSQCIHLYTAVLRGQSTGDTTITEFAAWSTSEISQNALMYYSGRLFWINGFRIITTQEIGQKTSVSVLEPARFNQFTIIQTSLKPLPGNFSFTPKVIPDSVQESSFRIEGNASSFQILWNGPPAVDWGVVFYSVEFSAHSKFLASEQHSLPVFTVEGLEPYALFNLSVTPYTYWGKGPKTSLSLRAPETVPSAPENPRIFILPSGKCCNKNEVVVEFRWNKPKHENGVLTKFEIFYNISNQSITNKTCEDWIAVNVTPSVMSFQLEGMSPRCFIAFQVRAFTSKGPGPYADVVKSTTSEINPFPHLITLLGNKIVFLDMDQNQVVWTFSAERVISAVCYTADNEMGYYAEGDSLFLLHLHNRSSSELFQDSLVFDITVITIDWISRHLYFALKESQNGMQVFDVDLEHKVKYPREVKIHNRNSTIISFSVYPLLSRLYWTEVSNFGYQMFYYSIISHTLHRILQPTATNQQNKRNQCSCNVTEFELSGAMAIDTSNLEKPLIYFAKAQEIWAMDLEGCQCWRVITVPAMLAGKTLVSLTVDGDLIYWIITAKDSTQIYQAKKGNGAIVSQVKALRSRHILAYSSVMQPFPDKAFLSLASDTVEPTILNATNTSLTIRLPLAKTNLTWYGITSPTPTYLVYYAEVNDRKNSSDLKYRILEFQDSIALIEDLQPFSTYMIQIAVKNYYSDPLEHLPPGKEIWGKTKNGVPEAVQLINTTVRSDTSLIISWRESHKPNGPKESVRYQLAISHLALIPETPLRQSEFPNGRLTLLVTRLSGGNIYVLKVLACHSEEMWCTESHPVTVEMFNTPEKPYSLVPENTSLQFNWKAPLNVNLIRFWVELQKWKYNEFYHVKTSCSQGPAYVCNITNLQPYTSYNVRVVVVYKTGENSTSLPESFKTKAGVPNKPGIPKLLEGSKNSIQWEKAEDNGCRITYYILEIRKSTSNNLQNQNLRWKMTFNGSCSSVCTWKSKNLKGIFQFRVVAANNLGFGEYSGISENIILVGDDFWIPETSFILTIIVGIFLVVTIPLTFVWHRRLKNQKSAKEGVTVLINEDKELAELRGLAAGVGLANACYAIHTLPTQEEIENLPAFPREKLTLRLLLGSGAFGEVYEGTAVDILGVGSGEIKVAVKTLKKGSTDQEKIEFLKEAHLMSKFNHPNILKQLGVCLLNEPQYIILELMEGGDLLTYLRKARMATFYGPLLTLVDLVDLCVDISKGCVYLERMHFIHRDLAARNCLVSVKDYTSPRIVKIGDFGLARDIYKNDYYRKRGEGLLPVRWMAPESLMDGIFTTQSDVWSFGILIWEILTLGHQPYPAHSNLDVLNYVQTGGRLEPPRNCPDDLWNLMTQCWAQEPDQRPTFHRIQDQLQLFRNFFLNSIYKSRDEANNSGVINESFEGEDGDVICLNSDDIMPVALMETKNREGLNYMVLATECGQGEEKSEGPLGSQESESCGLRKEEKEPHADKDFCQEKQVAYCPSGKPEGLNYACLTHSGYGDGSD
Chain of SLC34A2-ROS1 (O95436 whole entry, further chain): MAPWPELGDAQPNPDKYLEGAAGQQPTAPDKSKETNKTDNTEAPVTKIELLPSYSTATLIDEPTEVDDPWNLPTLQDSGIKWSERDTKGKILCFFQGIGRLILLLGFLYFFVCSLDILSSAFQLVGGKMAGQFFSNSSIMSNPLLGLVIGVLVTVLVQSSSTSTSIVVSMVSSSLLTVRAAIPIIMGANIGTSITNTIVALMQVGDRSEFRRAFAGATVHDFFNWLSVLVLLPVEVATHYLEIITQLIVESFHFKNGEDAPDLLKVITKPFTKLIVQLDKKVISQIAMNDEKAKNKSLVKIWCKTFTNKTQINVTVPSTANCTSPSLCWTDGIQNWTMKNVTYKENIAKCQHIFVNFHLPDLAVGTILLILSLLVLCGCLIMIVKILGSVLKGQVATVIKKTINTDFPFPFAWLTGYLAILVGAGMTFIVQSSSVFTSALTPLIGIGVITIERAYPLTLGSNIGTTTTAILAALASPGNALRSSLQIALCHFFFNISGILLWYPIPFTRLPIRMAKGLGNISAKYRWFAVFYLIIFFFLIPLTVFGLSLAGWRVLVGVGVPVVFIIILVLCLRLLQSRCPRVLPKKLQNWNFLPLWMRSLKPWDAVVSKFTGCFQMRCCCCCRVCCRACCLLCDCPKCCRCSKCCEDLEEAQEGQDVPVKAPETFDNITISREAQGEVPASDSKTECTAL
Chain of Tyrosine-protein kinase Mer (Q12866 whole entry): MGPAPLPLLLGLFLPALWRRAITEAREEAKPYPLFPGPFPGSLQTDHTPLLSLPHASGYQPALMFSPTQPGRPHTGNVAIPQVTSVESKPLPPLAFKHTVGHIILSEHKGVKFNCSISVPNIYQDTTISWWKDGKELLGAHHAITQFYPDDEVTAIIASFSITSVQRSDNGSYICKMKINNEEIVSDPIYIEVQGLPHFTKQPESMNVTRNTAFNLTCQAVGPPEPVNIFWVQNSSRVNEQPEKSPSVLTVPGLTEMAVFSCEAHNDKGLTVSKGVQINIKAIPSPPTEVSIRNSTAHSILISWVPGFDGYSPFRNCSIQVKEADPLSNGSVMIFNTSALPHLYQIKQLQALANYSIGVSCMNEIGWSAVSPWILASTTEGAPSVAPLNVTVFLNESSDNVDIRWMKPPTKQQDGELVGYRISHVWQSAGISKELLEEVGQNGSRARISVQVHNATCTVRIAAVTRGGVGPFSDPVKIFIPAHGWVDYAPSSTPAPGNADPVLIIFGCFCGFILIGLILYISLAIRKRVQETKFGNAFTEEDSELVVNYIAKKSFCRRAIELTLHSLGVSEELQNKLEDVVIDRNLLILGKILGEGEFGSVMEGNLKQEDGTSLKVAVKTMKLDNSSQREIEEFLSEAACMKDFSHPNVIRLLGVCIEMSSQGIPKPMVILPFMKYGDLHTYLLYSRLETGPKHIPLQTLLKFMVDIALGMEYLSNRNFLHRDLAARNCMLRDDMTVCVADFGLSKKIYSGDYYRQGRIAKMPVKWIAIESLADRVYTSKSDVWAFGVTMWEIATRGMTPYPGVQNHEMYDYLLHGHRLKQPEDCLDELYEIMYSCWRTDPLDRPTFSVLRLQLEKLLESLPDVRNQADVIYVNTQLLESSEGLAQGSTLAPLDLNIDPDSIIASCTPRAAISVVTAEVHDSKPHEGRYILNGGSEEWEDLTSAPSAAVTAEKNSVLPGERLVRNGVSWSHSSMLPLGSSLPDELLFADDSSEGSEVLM

Structure (SMILES): OCCn1cc(-c2cnc3nnn(Cc4ccc5ncccc5c4)c3n2)cn1 [PF-04217903]
- inhibition in vivo at 10 mg/kg [1]: 68%
- inhibition [2]: Active
- inhibition in vivo at 50 mg/kg/day [3]: 39%
- IC50 [4]: > 10000 nM
- inhibition in vivo at 50 mg/kg/day [5]: 77%
- inhibition in vivo at 0.5 mg/kg [6]: 46%
- inhibition [7]: Dose-Dependent Effect
- IC50 [8]: 7 nM
- IC50 [9]: > 10000 nM
- inhibition in vivo at 3 mg/kg [10]: 74%
- inhibition in vivo at 40 mg/kg/day [11]: 45%
- inhibition [12]: Dose-Dependent Effect
- inhibition [13]: Dose-Dependent Effect
- inhibition [14]: Dose-Dependent Effect
- IC50 [15]: > 10000 nM
- inhibition in vivo at 3 mg/kg [16]: 48%
- IC50 [17]: 30 nM
- IC50 [18]: > 10000 nM
- inhibition [19]: Dose-Dependent Effect
- IC50 [20]: 12.5 nM
- IC50 [21]: > 10000 nM
- inhibition [22]: Active
- IC50 [23]: 6.4 nM
- inhibition in vivo at 1 mg/kg [24]: 30%
- inhibition [25]: Dose-Dependent Effect
- IC50 [26]: 12 nM
- inhibition [27]: inactive
- inhibition in vivo at 10 mg/kg [28]: 90%
- inhibition in vivo at 1 mg/kg [29]: 64%
- IC50 [30]: > 10000 nM
- IC50 [31]: > 10000 nM
- IC50 [32]: 16 nM
- inhibition [33]: Active
- inhibition in vivo at 15 mg/kg [34]: 93%
